These results are taken from US8119681B2, “2-[1-phenyl-5-hydroxy or methoxy-4alpha-methyl-hexahydrocyclopenta [ƒ]indazole-5-YL]ethyl phenyl derivatives as glucocorticoid receptor ligands” (Merck Sharp & Dohme Corp., priority 2006, dated 2012).

In the first assay the target is T1, human GR (Homo sapiens, UniProt P04150).
T1 sequence (P04150 1-777): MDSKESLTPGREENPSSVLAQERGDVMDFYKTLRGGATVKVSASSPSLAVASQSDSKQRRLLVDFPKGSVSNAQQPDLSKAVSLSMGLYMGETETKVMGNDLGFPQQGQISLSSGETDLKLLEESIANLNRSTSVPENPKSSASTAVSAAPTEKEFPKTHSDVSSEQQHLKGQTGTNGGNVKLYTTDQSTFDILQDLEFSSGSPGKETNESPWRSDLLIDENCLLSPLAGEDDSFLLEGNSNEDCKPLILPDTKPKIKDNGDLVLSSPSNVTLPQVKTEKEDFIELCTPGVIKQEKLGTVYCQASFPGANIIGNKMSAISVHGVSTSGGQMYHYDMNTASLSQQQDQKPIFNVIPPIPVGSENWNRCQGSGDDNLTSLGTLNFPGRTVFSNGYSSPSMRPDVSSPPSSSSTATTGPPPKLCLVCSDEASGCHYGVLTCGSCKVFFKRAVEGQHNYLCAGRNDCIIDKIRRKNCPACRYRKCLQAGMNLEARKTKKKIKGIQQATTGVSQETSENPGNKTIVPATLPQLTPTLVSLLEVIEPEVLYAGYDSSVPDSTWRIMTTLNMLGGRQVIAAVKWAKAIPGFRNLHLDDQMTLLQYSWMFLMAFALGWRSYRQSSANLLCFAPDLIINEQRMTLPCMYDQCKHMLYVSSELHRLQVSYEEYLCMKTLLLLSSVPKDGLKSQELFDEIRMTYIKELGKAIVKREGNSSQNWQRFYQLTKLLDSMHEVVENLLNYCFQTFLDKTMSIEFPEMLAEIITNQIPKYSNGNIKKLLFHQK
The assay can be described thus: Transrepression Assay (GITAR), TNFα-β-lactamase reporter gene in U937 cells. It counts as cell-based. Also on record: U937 cells contain an endogenous glucocorticoid receptor (GR); endogenous in cells; host or cells: U937 cells stably transfected with the TNF-α promoter/β-lactamase reporter only. The following applies: U-937, read-out: maximal activity in the transrepression assay. An excerpt: Transrepression Assay (GITAR)
This assay assesses the ability of test compounds to control transcription from the TNFα-β-lactamase reporter gene in U937 cells, a human myelomonocytic leukemia cell line that naturally expresses the human GR. The assay measures compound dependent-repression of the TNFa promoter linked to a reporter gene.
The human U937 cells that had been stably transfected with the TNF-α promoter driving β-lactamase are used for this assay. U937 cells contain an endogenous glucocorticoid receptor (GR). […] 50,000 cells/well are plated in 96 well black-walled plates the day of assay. Test compounds are added 10 μL/well, and cells are incubated at 37° C. for 30˜45 min. For assaying compounds, first dilute 1:10 in DMSO to make 1 mM, then further dilute 1:100 in medium to make 10× stock prior to adding to the cells. Add 50 ng/ml PMA (Sigma, cat# P8139) 10 μL/well to a final concentration 5 ng/ml, and 1 μg/ml LPS (Sigma, cat# L4130) 10 μL/well to a final concentration 100 ng/ml. Incubate cells at 370 C overnight for ˜18 hr. PMA is stored frozen as 100 μg/ml stock in DMSO. Dilute 1:10 in DMSO for a working stock of 10 μg/ml and store at −20 C. For assaying, dilute the 10 μg/ml working stock 1:200 in medium to make a 10× solution (50 ng/ml). Store frozen LPS at 1 mg/ml in PBS, dilute 1:1000 in medium to make 10× (1 μg/ml) for the assay. Add 6× loading buffer (CCF2-AM) 20 μL/well, and incubate at room temperature for 70˜90 min. […] The activity repressed by 100 nM dexamethasone alone is set as 100% activity.
Background: Reporter assays use an easily measured gene product as a stand-in for the process of interest.
Consider `CCNC(=O)Oc1ccccc1CC[C@]1(O)CCC2=Cc3c(cnn3-c3ccc(F)cc3)C[C@@]21C` [Example 18, 2-{2-[(4αS,5R)-1-(4-fluorophenyl)-5-hydroxy-4α-methyl-1,4,4α,5,6,7-hexahydrocyclopenta[f]indazol-5-yl]ethyl}phenyl ethylcarbamate], for which the Emax fell in the range of 5 to 100%.

Staying with this assay, now noted: U-937; 100 nM dexamethasone = 100% activity; read-out: maximal activity in the transrepression assay.
As for `C[C@]12Cc3cnn(-c4ccc(F)cc4)c3C=C1CC[C@@]2(O)CCc1ccccc1C(=O)O` [Example 1, 2-{2-[(4αS,5R)-1-(4-Fluorophenyl)-5-hydroxy-4α-methyl-1,4,4α,5,6,7-hexahydrocyclopenta[f]indazol-5-yl]ethyl}benzoic acid], the Emax lay in the range of 5 to 100%.

With `C[C@]12Cc3cnn(-c4ccc(F)cc4)c3C=C1CC[C@@]2(O)CCc1ccccc1CNC(=O)C1CC1` [Example 4], the Emax lay within 5 to 100%.

`CCOC(=O)NCc1ccccc1CC[C@]1(O)CCC2=Cc3c(cnn3-c3ccc(F)cc3)C[C@@]21C` [Example 6, Ethyl(2-(2-[(4αS,5R)-1-(4-fluorophenyl)-5-hydroxy-4α-methyl-1,4,4α,5,6,7-hexahydrocyclopenta(f)indazol-5-yl]ethyl)benzyl)carbamate]: the Emax lay within 5 to 100%.

With `C[C@]12Cc3cnn(-c4ccc(F)cc4)c3C=C1CC[C@@]2(O)CCc1ccccc1C1(NS(=O)(=O)C2CC2)CC1` [Example 7, N-[1-(2-{2-[(4αS,5R)-1-(4-Fluorophenyl)-5-hydroxy-4α-methyl-1,4,4α,5,6,7-hexahydrocyclopenta[f]indazol-5-yl]ethyl}phenyl)cyclopropyl]cyclopropanesulfonamide], the Emax was 5 to 100%.

Consider `C[C@@H](NS(=O)(=O)C1CC1)c1ccccc1CC[C@]1(O)CCC2=Cc3c(cnn3-c3ccc(F)cc3)C[C@@]21C` [Example 8, N-[(1R)-1-(2-{2-[(4αS,5R)-1-(4-Fluorophenyl)-5-hydroxy-4α-methyl-1,4,4α,5,6,7-hexahydrocyclopenta[f]indazol-5-yl]ethyl}phenyl)ethyl]cyclopropanesulfonamide], for which the Emax lay within 5 to 100%.

Turning to `CCNC(=O)OCc1ccccc1CC[C@]1(O)CCC2=Cc3c(cnn3-c3ccc(F)cc3)C[C@@]21C` [Example 9], the Emax was in the range of 5 to 100%.

Consider `C[C@]12Cc3cnn(-c4ccc(F)cc4)c3C=C1CC[C@@]2(O)CCc1ccccc1-c1ccc(F)nc1` [Example 10, (4αS,5R)-1-(4-fluorophenyl)-5-{2-[2-(6-fluoropyridin-3-yl)phenyl]ethyl}-4α-methyl-1,4,4α,5,6,7-hexahydrocyclopenta[f]indazol-5-ol], for which the Emax lay within 5 to 100%.

With `CCOC(=O)Nc1ccccc1CC[C@]1(O)CCC2=Cc3c(cnn3-c3ccc(F)cc3)C[C@@]21C` [Example 12, ethyl (2-{2-[(4αS,5R)-1-(4-fluorophenyl)-5-hydroxy-4α-methyl-1,4,4α,5,6,7-hexahydrocyclopenta[f]indazol-5-yl]ethyl}phenyl)carbamate], the Emax was in the range of 5 to 100%.

Consider `CCNC(=O)Nc1ccccc1CC[C@]1(O)CCC2=Cc3c(cnn3-c3ccc(F)cc3)C[C@@]21C` [Example 13, N-ethyl-N′-(2-{2-[(4αS,5R)-1-(4-fluorophenyl)-5-hydroxy-4α-methyl-1,4,4α,5,6,7-hexahydrocyclopenta[f]indazol-5-yl]ethyl}phenyl)urea], for which the Emax is 5 to 100%.

Turning to `C[C@]12Cc3cnn(-c4ccc(F)cc4)c3C=C1CC[C@@]2(O)CCc1ccccc1O` [Example 16, (4αS,5R)-1-(4-fluorophenyl)-5-[2-(2-hydroxyphenyl)ethyl]-4α-methyl-1,4,4α,5,6,7-hexahydrocyclopenta[f]indazol-5-ol], the Emax lay in the range of 5 to 100%.

On to `CCOC(=O)Oc1ccccc1CC[C@]1(O)CCC2=Cc3c(cnn3-c3ccc(F)cc3)C[C@@]21C` [Example 17, Ethyl-(2-(2-[(4αS,5R)-1-(4-fluorophenyl)-5-hydroxy-4α-methyl-1,4,4α,5,6,7-hexahydrocyclopenta(f)indazol-5-yl]ethyl)phenyl)carbonate], for which the Emax fell in the range of 5 to 100%.

As to `C[C@]12Cc3cnn(-c4ccc(F)cc4)c3C=C1CC[C@@]2(O)CCc1ccccc1C#N` [Example 20, 2-{2-[(4αS,5R)-1-(4-fluorophenyl)-5-hydroxy-4α-methyl-1,4,4α,5,6,7-hexahydrocyclopenta[f]indazol-5-yl]ethyl}benzonitrile], the Emax is 5 to 100%.

For `C[C@]12Cc3cnn(-c4ccc(F)cc4)c3C=C1CC[C@@]2(O)CCc1ccccc1C=O` [Example 21, 2-{2-[(4αS,5R)-1-(4-Fluorophenyl)-5-hydroxy-4α-methyl-1,4,4α,5,6,7-hexahydrocyclopenta[f]indazol-5-yl]ethyl}benzaldehyde], the Emax lay in the range of 5 to 100%.

Take `C[C@]12Cc3cnn(-c4ccc(F)cc4)c3C=C1CC[C@@]2(O)CCc1ccccc1S(N)(=O)=O` [Example 22, 2-{2-[(4αS,5R)-1-(4-fluorophenyl)-5-hydroxy-4α-methyl-1,4,4α,5,6,7-hexahydrocyclopenta[f]indazol-5-yl]ethyl}benzenesulfonamide]: the Emax fell in the range of 5 to 100%.

`CCOC1(OCC)CN(C(=O)c2ccccc2CC[C@]2(O)CCC3=Cc4c(cnn4-c4ccc(F)cc4)C[C@@]32C)C1` [Example 24, (4αS,5R)-5-(2-{2-[(3,3-diethoxyazetidin-1-yl)carbonyl]phenyl}ethyl)-1-(4-fluorophenyl)-4α-methyl-1,4,4α,5,6,7-hexahydrocyclopenta[f]indazol-5-ol]: the Emax was in the range of 5 to 100%.

For the compound `CC(C)(C)CNC(=O)c1ccccc1CC[C@]1(O)CCC2=Cc3c(cnn3-c3ccc(F)cc3)C[C@@]21C` [Example 25, N-(2,2-dimethylpropyl)-2-{2-[(4αS,5R)-1-(4-fluorophenyl)-5-hydroxy-4α-methyl-1,4,4α,5,6,7-hexahydrocyclopenta[f]indazol-5-yl]ethyl}benzamide], the Emax lay within 5 to 100%.

With `CCNC(=O)c1ccccc1CC[C@]1(O)CCC2=Cc3c(cnn3-c3ccccc3)C[C@@]21C` [Example 27, N-ethyl-2-{2-[(4αS,5R)-5-hydroxy-4α-methyl-1-phenyl-1,4,4α,5,6,7-hexahydrocyclopenta[f]indazol-5-yl]ethyl}benzamide], the Emax was in the range of 5 to 100%.

On to `CCNC(=O)c1ccccc1CC[C@]1(O)CCC2=Cc3c(cnn3-c3cccc(F)c3)C[C@@]21C` [Example 36, N-ethyl-2-{2-[(4αS,5R)-1-(3-fluorophenyl)-5-hydroxy-4α-methyl-1,4,4α,5,6,7-hexahydrocyclopenta[f]indazol-5-yl]ethyl}benzamide], for which the Emax lay in the range of 5 to 100%.

Take `CC1(NC(=O)c2ccccc2CC[C@]2(O)CCC3=Cc4c(cnn4-c4ccc(F)c(F)c4)C[C@@]32C)CC1` [Example 39, 2-{2-[(4αS,5R)-1-(3,4-difluorophenyl)-5-hydroxy-4α-methyl-1,4,4α,5,6,7-hexahydrocyclopenta[f]indazol-5-yl]ethyl}-N-(1-methylcyclopropyl)benzamide]: the Emax is 5 to 100%.

`C=CCN(C)C(=O)c1ccccc1CC[C@]1(O)CCC2=Cc3c(cnn3-c3ccc(F)cc3)C[C@@]21C` [Example 50, N-allyl-2-{2-[(4αS,5R)-1-(4-fluorophenyl)-5-hydroxy-4α-methyl-1,4,4α,5,6,7-hexahydrocyclopenta[f]indazol-5-yl]ethyl}-N-methylbenzamide]: the Emax was in the range of 5 to 100%.

`C=C(F)CNC(=O)c1ccccc1CC[C@]1(O)CCC2=Cc3c(cnn3-c3ccc(F)cc3)C[C@@]21C` [Example 53, 2-{2-[(4αS,5R)-1-(4-fluorophenyl)-5-hydroxy-4α-methyl-1,4,4α,5,6,7-hexahydrocyclopenta[f]indazol-5-yl]ethyl}-N-(2-fluoroprop-2-en-1-yl)benzamide]: the Emax fell in the range of 5 to 100%.
